According to article PMC12546632, “The role of cytochrome bc1 inhibitors in future tuberculosis treatment regimens” (Nature Communications, 2025):
“And” between values parts separate entries of the source, which are not always exact repeats. Equal values may be shown once.

Tested on: JNJ-2901- and JNJ-4052-resistant M. tuberculosis ΔcydAB strains (QcrA/QcrB mutants)
Assay type: cell-based, Mycobacterium tuberculosis

`NNC(=O)c1ccncc1` [Isoniazid, isoniazid] was tested, and the “MIC50 fold change from parental strain” value was 1 fold and 0.5 fold.
